assay: Human HepG2 cell viability assay in 384 well format; type: toxicity, cell-based; set-up: dose 125 nL, time 70.5 hour; concentration not given beside the values; details: HepG2 cells, read-out: Inhibition

SMILES	cytotoxicity at 70.5 h
NC(=O)Cn1c(SCc2noc(-c3ccsc3)n2)nnc1C1CC1	-1.96%
COCCCC(=O)NCc1cccc(NC(N)=O)c1	-3.29%
COc1cc(Cl)ccc1C(=O)NCC(=O)Nc1nccs1	-5.69%
CCOCCCC(=O)Nc1[nH]nc(-c2ccncc2)c1C	-9.37%
NC(=O)N1CCCC(C(=O)Nc2cccc(Cl)c2)C1 (configuration not stated)	-8.06%
COC(=O)c1oc(CNC(C)(C)CO)cc1C	-5.24%
Cc1noc(C)c1CS(=O)(=O)CC(=O)NCCc1cccs1	15.1%
CNS(=O)(=O)c1ccccc1N1CCN(C(=O)C(C)C)CC1	-5.83%
CN(C)C(=O)COc1ccccc1CNC1CCc2ncnn2C1 (configuration not stated)	-6.71%
CC(C)(C)CC(=O)NCC(=O)NS(=O)(=O)c1cccnc1	2.71%
COC(=O)N(C)CCCC(=O)Nc1[nH]nc(-c2ccncc2)c1C	-2.11%
O=C(CNC(=O)c1cc(Cl)ccn1)Nc1nccs1	-4.32%
COc1cccc(COCC(=O)NC(C(N)=O)c2ccccc2F)c1 (configuration not stated)	12%
NC(=O)C(NC(=O)COCCc1ccccc1)c1ccccc1F (configuration not stated)	5.16%
OCCN(Cc1cccnc1)c1ncc(Br)cn1	-2%
Cc1cc(C(=O)NCC(O)CN2CCCC2=O)ccc1F (configuration not stated)	-4.58%
CCn1nc2c(cc1=O)CN(CCOc1cccc(C#N)c1)CC2	-3.93%
Cc1cc(C2CCCN(C(=O)COc3cc(F)ccc3F)C2)n[nH]1 (configuration not stated)	3.52%
COC(=O)c1oc(CNC(C)(C)c2ccc3c(c2)OCO3)cc1C	19.5%
CN(Cc1ncnn1C)C(=O)CCn1ccc2ccccc21	-7.59%
O=C1CC2(CCSC2)C(=O)N1CCCc1ccccc1 (configuration not stated)	-5.63%
CCOC(=O)C(C)NC(=O)CCSc1ccc(F)cc1 (configuration not stated)	-2.94%
COCCN(C)CC1CCCN1S(=O)(=O)c1cccc(F)c1F (configuration not stated)	-4.32%
Cc1cc2n(n1)CC(CNC1CCN(Cc3ccncc3)CC1)CN2 (configuration not stated)	-0.58%

SMILES	cytotoxicity at 70.5 h
CCc1cccc(NS(=O)(=O)c2cc(C)c(C(=O)O)s2)c1	0.535%
Cc1cc2n(n1)CC(CNC1CCN(Cc3ccccn3)CC1)CN2 (configuration not stated)	-6.35%
N#Cc1cccc(CNC(=O)NC2CCN(CC(F)F)CC2)c1	17.7%
CC(C)c1noc(CCC(=O)NC(C)c2nnc3n2CCC3)n1 (configuration not stated)	0.884%
CC(C)c1noc(CCCC(=O)NC(C)c2nnc3n2CCC3)n1 (configuration not stated)	-4.68%
CC(C)NC(=O)Nc1ccccc1CN1CCOCC1	-5.87%
COc1ccnc(N2CCN(C(=O)c3cnc(C4CC4)s3)CC2)n1	-5.21%
CCS(=O)(=O)N1CCC(NCC2CNc3cc(C)nn3C2)CC1 (configuration not stated)	19.2%
Cc1cc(S(=O)(=O)Nc2cccc(OC(F)F)c2)sc1C(=O)O	16.4%
CC(C)COCC(C)NC(=O)NCc1cccc(-n2cncn2)c1 (configuration not stated)	-2.93%
Cc1ccccc1C(=O)NC1CCN(c2cnn(C)c2)C1=O (configuration not stated)	-4.47%
Cc1nc(CN2CCC(CNC(=O)NCCC3CCC3)CC2)oc1C	0.076%
Cc1c(CNC(=O)NCc2cccc(-n3cncn3)c2)cnn1C	-5.57%
CCC(CC)c1cc(CNC(=O)N2CCCC(c3ncc[nH]3)C2)on1 (configuration not stated)	0.2%
CCN1CCN(c2ccc(F)cc2C(C)NCc2nc(C)no2)CC1 (configuration not stated)	-0.791%
CCC(CC)c1cc(CNC(=O)N2CCC[C@@H]2CO)on1	15.7%
CCC(CC)c1cc(CNC(=O)N2CCC(CO)CC2)on1	-4.82%
CC(C)C(O)C(C)(C)CNC(=O)NCc1ccc(-n2cncn2)cc1 (configuration not stated)	-1.82%
COc1c(CNC2CCOc3ccccc32)c(C)nn1C (configuration not stated)	-4.19%
c1cc(CNCc2ccnc(N3CCCCC3)c2)c2c(c1)OCCCO2	-10.6%
CCN(CC(=O)NC(C)C)S(=O)(=O)N1CCCC(C)C1 (configuration not stated)	-1.39%
O=C1CC2(CCCC2)C(=O)N1CC(O)COCc1ccccc1F (configuration not stated)	12.5%
Cc1ccc(-c2ccsc2C(=O)NC2CCS(=O)(=O)C2)cc1 (configuration not stated)	-3.7%
O=C(NC1CCS(=O)(=O)C1)c1ccc(-c2ccc(F)cc2)s1 (configuration not stated)	-0.198%

SMILES	cytotoxicity at 70.5 h
COc1cc(C(=O)O)ccc1OCC(=O)NC(C)c1ccc(F)cc1 (configuration not stated)	-5.08%
COc1ccc(C(=O)O)c(OCC(=O)NC(C)c2ccccc2)c1 (configuration not stated)	-5.77%
COc1c(CNC2CCOc3c(F)cccc32)c(C)nn1C (configuration not stated)	-3.45%
Cc1cnn(CC2CN(CCS(C)(=O)=O)CCO2)c1 (configuration not stated)	-4.67%
COC(=O)N1CCC(NC(=O)Cn2cc(C)c3ccccc32)CC1	-7.09%
Cc1cc(CNC(=O)[C@H]2CCCCN2C(=O)OC(C)(C)C)on1	-1.11%
COc1ccc(CNC(=O)CNc2cc3c(cc2Cl)OCCO3)cc1	-0.455%
CSCC(C)(O)CNC(=O)c1cc(F)ccc1Br (configuration not stated)	1.71%
COCCN1CCC(NC(=O)Cn2cc(C)c3ccccc32)CC1	12.3%
Cc1cc(CNC(=O)C2CCCN2C(=O)OC(C)(C)C)no1 (configuration not stated)	-0.379%
c1ccc2c(c1)OCCCC2NCc1nnc2n1CCCCC2 (configuration not stated)	-2.04%
Cc1nn(C)c(Oc2ccccc2)c1CNC1CCOc2ccccc21 (configuration not stated)	-1.6%
Cc1cc(CN(Cc2ccccc2)CC(O)c2cccs2)on1 (configuration not stated)	8.6%
OC(CN(Cc1ccccc1)Cc1ccon1)c1cccs1 (configuration not stated)	-5.21%
CN(C)c1cc(CNCc2cccc3c2OCCO3)ccn1	-4.63%
CCN(CC)S(=O)(=O)N1CCCN(CC(=O)NC(C)C)CC1	6.63%
c1cc(CNCc2ccnc(N3CCCC3)c2)c2c(c1)OCCCO2	-10%
Cc1oncc1C(=O)NCC(c1ccccc1Cl)N1CCOCC1 (configuration not stated)	-3.09%
Cc1cnc(C(=O)NCC(c2ccc(C)o2)N2CCOCC2)cn1 (configuration not stated)	10.4%
CN1CCN(Cc2ccccc2CNC(=O)c2cc(Cl)ccc2F)CC1	-5.92%
Cc1ccoc1C(=O)NCC(c1ccccc1Cl)N1CCOCC1 (configuration not stated)	-1.62%
CC(C)CN1CCN(C(=O)c2cccnc2-n2cncn2)CC1	11.2%
CC(NC(=O)Cc1ccccc1F)C(=O)N1CCS(=O)(=O)CC1 (configuration not stated)	-3.35%
CC(C)(C)NC(=O)NC(=O)COc1nc(C(C)(C)C)no1	13%

SMILES	cytotoxicity at 70.5 h
CN(Cc1ccc(N(C)C)cc1)C(=O)CS(=O)(=O)c1ccc(Cl)cc1	17%
CC(C)(C)N1CCN(C(=O)c2cccnc2-n2cncn2)CC1	0.2%
N#Cc1cccnc1NCCNC(=O)N1CCN2CCCCC2C1 (configuration not stated)	13.6%
Cc1ccc(CC(=O)NC(C)C(=O)N2CCS(=O)(=O)CC2)s1 (configuration not stated)	-1.34%
Cc1cnn(CC2CCCN2CC(=O)N(C)Cc2ccco2)c1 (configuration not stated)	-4.69%
Cn1cc(CCCNS(=O)(=O)N2CCCC2c2ccco2)cn1 (configuration not stated)	-2.37%
CS(=O)(=O)Cc1ccc(Cl)c(NCc2noc(C3CC3)n2)c1	0.67%
O=C(NC1(c2nccs2)CCCC1)c1cc(C2CC2)[nH]n1	-2.38%
O=C(NC1(c2nccs2)CCCC1)c1[nH]nc(C2CC2)c1Cl	3%
Cn1ccc(NC2CCN(C3CC3)C2=O)n1 (configuration not stated)	11.7%
COCC(C)(C#N)NC(=O)COc1ccccc1Br (configuration not stated)	-0.405%
CCC(NCc1cc[nH]n1)c1nc(C(F)(F)F)cs1 (configuration not stated)	-4.23%
CCN(CC1CCCO1)S(=O)(=O)c1cc(NC(C)=O)ccc1C (configuration not stated)	6.44%
CN(CCN1CCCC1=O)S(=O)(=O)CC1CCCC1	-4.62%
CCn1cc(CN(C)S(=O)(=O)N2CCCC2c2ccco2)cn1 (configuration not stated)	-1.42%
CC(C)N1CCC(Nc2ccn(CCC#N)n2)C1=O (configuration not stated)	-2.6%
Cc1[nH]ccc1C(=O)N(C)C1CC(=O)N(Cc2ccccc2)C1=O (configuration not stated)	-2.82%
O=C(CNc1cc(F)ccc1OC(F)F)NCC(F)(F)F	2.53%
CN(C(=O)CN1CCCC1c1cnn(C)c1)C(C)(C)C#N (configuration not stated)	1.19%
Cc1ccc(N2CCCC(N(C)c3ncnc4c3CCC4)C2)nn1 (configuration not stated)	2.74%
CCOc1cc(C(=O)N(C)C)ccc1NC(=O)C(C)c1ccsc1 (configuration not stated)	26%
O=c1oc(-c2ccc(F)cc2)nn1CCc1ccccn1	2.48%
CCN(CC)Cc1ccccc1NC(=O)N(C)Cc1ccccc1O	-6.5%
Cn1ccnc1COc1ccc(CSc2nncn2C2CC2)cc1	-8.64%

SMILES	cytotoxicity at 70.5 h
CN(C)C(=O)c1ccccc1NC(=O)N(C)Cc1ccccc1O	4.11%
NC(=O)Cn1ccc(NC(=O)C2(c3cccc(Cl)c3)CC2)n1	-7.03%
Cc1cc(C(=O)N2CCCC(N3CCNC3=O)C2)nn1C(C)(C)C (configuration not stated)	-0.73%
NC(=O)CCN1C(=O)CC(Cc2ccc(F)cc2)C1=O (configuration not stated)	-11.2%
N#CC(NC(=O)CS(=O)(=O)C1CCCC1)c1ccc(F)cc1F (configuration not stated)	-10.4%
O=C(CNc1ccc(F)cc1OCC(F)(F)F)NCC(F)(F)F	13.1%
CC(CNC(=O)c1c[nH]nn1)Oc1cccc(Br)c1 (configuration not stated)	-11.4%
CC(CNC(=O)c1ccon1)Oc1cccc(Br)c1 (configuration not stated)	4.03%
C=C(C)CN1C(=O)CC(Cc2ccc(F)cc2)C1=O (configuration not stated)	-3.87%
CCOc1ccc(C(=O)N(C)C)cc1NC(=O)c1ccsc1	-10.6%
CCCS(=O)(=O)N(C)C(=O)CCc1ccccc1	-8.46%
NC(=O)Cn1ccc(NC(=O)C2(c3cccc(F)c3)CCC2)n1	19.5%
Cc1cc(CNC(=O)c2cccs2)ccc1S(C)(=O)=O	-3.96%
N#CC(NC(=O)CCC(=O)NC1CCCC1)c1ccc(F)cc1F (configuration not stated)	-11.2%
CC1c2cccn2CCN1S(=O)(=O)N1CCCCCC1 (configuration not stated)	-14.2%
CCCN(CC1CC1)C(=O)CN1CCCC1c1cnn(C)c1 (configuration not stated)	-10.4%
CCOc1ccc(N(C)S(=O)(=O)c2c[nH]c(C(C)C)n2)cc1	-4.89%
CC(Cn1cccn1)NC(=O)N1CCC(NS(C)(=O)=O)CC1 (configuration not stated)	-17.2%
Cc1nc2n(n1)CC(NCC(=O)N(C)Cc1cccs1)CC2 (configuration not stated)	2.31%
CN(c1cccc(C#N)c1)S(=O)(=O)c1cc(C(=O)O)ccc1Cl	-12.6%
COc1c(CNC2CCCOc3ccc(F)cc32)c(C)nn1C (configuration not stated)	-2.26%

From ChEMBL document CHEMBL3507680, “University of Dundee, Gates Library screen for HepG2 cell viability”
